This note sets out measurements from patent US12534477B2, “Compound having KHK inhibitory effect” (HANGZHOU ZHONGMEIHUADONG PHARMACEUTICAL CO., LTD., priority 2019, dated 2026).

Series [1] addresses Recombinant Human Ketohexokinase (KHK) (Homo sapiens (Human), UniProt P50053). Kind of series: Ketohexokinase assay (KHK assay), ADP-Glo. It is filed as biochemical. The method, then: • 1. EnVision multilabel reader, Perkin Elmer; • 2. OptiPlate 384-well microplate, Perkin Elmer, Cat. No. 6007290; • 3. Recombinant Human Ketohexokinase (KHK), R&D Cat. No.: 8177-HK-020, Lot No.: DDFK0117092; • 4. Fructose (D(−)-Fructose), SCR Cat. No.: 36003034; and • 5. ADP-Glo kinase assay kit, Promega_Cat. No.: V9101.
1. preparation of Dilution Buffer containing 50 mM hydroxyethylpiperazine […] (Hepes), 140 mM KCl, 3.5 mM MgCl2, and 0.01% bovine serum albumin (BSA), pH 7.4.
2. A working solution of ketohexokinase at 2.5 times concentration was prepared with Dilution Buffer, with 50 nM ketohexokinase and 12.5 mM fructose.
3. A working solution of adenosine triphosphate (ATP) at 2.5 times concentration was prepared with Dilution Buffer, with a concentration of 250 μM.
4. Each compound was diluted starting at a concentration of 500 μM, 3-fold diluted for 9 concentration points. The final concentration of the compound in the reaction system started from 10 μM and the final concentration of dimethyl sulfoxide (DMSO) was 2%.
5. A 96-well plate was prepared as a reaction plate, and was incubated at room temperature for 5 min after adding 6 μL ketohexokinase working solution at 2.5 times concentration to each well and further adding 3 μL compound working solution to each well.
6. The first well of each row was a positive control for a compound, i.e. the same volume of the buffer was added to replace the compound and ketohexokinase. The last well was a negative control for the compound, i.e. the same volume of Dilution Buffer was added instead of the compound.
7. 6 μL ATP working solution was added to each well in a 96-well reaction plate to initiate the kinase reaction. The kinase reaction was incubated in a constant temperature heater at 28° C. for 1 h.
1. A384 plate was prepared as a detection plate, and firstly 5 μL ADP-Glo reagent was added.
2. 5 μL kinase reaction mixture from the reaction plate was added to each well and incubated in a constant temperature heater at 28° C. for 30 min.
3. 10 μL kinase detection reagent was added to each well and incubated in a constant temperature heater at 28° C. for 30 min.
4. The detection plate was placed in an EnVision multilabel reader to read the chemiluminescent signal.

The target of series [2] is CYP2C19 (Homo sapiens (Human), UniProt P33261). Kind of series: Inhibitory activity on human liver microsomal cytochrome P450 isozymes. It is filed as in vitro ADME. The settings on record: human liver microsomes. The method, then: (§1) The inhibitory effect of test compounds on the activity of human hepatic microsomal cytochrome P450 isozymes (CYP1A2, CYP2C9, CYP2C19, CYP2D6 and CYP3A4) was determined.
Sequence of CYP2C19 (P33261 whole entry): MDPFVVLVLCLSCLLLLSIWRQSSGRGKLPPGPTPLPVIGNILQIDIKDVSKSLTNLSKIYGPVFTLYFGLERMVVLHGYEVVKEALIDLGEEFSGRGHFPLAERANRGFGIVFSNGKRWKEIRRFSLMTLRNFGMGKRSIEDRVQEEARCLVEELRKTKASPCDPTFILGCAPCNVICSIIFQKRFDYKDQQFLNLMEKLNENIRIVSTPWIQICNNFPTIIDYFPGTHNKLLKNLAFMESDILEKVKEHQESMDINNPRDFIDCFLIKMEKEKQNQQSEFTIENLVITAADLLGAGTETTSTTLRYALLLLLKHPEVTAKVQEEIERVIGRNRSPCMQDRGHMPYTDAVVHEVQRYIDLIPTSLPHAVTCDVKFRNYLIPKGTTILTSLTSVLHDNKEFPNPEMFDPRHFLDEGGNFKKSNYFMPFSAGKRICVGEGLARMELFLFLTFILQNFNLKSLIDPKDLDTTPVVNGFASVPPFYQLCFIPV
(§2) First, the test compound (10 mM) was diluted in gradient to prepare working solutions (100×final concentration) with working solution concentrations: 5, 1.5, 0.5, 0.15, 0.05, 0.015, 0.005 mM, respectively, and at the same time, working solutions of each positive inhibitor of P450 isozymes (CYP1A2, CYP2C9, CYP2C19, CYP2D6 and CYP3A4) and its specific substrate mixture were prepared. Human liver microsomes frozen in a −80° C. refrigerator were thawed on ice, and diluted with PB (phosphate buffer) after all the human liver microsomes were dissolved, to prepare a working solution at a certain concentration (0.253 mg/mL). 20 μl substrate mixture was added to the reaction plate (20 μL PB was added to the Blank wells) while 158 μL human liver microsome working solution was added to the reaction plate which was placed on ice for later use. At this time, 2 μL of each concentration of the test compound (N=1) and the specific inhibitor (N=2) were added to the corresponding wells, and the corresponding organic solvents were added to the groups without inhibitors (the test compound or the positive inhibitor) as control samples (1:1 DMSO:MeOH for the test compound control sample, and 1:9 DMSO:MeOH for the positive control sample). After pre-incubation in 37° C. water bath for 10 min, 20 μL coenzyme factor (NADPH) solution was added to the reaction plate, and incubated in 37° C. water bath for 10 min. 400 μL cold acetonitrile solution (200 ng/mL Tolbutamide and Labetalol as the internal standard) was added to stop the reaction. The reaction plate was placed on a shaker and shaken for 10 min. The mixture was centrifuged at 4,000 rpm for 20 min, and 200 μl the supernatant was added to 100 μL water for sample dilution. Finally, the plate was sealed, shaken, mixed well and detected by LC/MS/MS.
A general note: Liver microsomes are vesicles of endoplasmic reticulum, rich in cytochrome P450 enzymes.

Series [3] addresses CYP2C9 (Homo sapiens (Human), UniProt P11712). The series is described as above. It is filed as in vitro ADME. The settings on record: human liver microsomes. The protocol:
as §1, §2

For series [4], the target named is CYP2D6 (Homo sapiens (Human), UniProt P10635). The series is described as above. It is filed as in vitro ADME. The settings on record: human liver microsomes. The protocol:
as §1, §2

Series [5] deals with CYP3A4 (Homo sapiens (Human), UniProt P08684). Described as above. It is filed as in vitro ADME. The settings on record: human liver microsomes. The method, then: as §1, §2
Sequence of CYP3A4 (P08684 whole entry): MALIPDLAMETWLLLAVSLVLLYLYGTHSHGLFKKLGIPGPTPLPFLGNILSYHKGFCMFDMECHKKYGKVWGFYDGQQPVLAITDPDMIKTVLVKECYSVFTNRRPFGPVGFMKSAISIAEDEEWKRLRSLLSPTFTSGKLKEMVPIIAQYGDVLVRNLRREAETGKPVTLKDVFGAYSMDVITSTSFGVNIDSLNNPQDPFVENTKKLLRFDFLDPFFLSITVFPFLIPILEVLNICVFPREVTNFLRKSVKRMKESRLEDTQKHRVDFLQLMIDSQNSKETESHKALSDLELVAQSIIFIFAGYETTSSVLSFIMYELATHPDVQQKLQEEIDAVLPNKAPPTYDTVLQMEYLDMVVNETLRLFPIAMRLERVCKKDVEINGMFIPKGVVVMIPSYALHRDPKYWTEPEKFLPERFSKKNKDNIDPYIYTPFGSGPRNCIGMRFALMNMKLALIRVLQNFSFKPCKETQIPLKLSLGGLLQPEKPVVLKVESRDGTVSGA
The nature of series [6]: Pharmacokinetic evaluation in SD rats. It is filed as in vivo. The settings on record: rat, plasma. The method, then: In vivo pharmacokinetics of compounds in SD rats were tested.
Pharmacokinetic profiles in rodents following intravenous and oral administration of the compounds were tested by standard protocols. In the experiment, candidate compounds were formulated as clear solutions or homogeneous suspensions, and were administered to rats by single intravenous injection (IV, 1 mpk) and oral administration (PO, 3 mpk). The vehicle for intravenous injection was a certain proportion of PEG400 in water, and the vehicle for oral administration was a certain proportion of methylcellulose and Tween 80 in water. Whole blood was collected, and plasma was prepared. Drug concentration was analyzed by LC-MS/MS, and pharmacokinetic parameters were calculated by Phoenix WinNonlin software.

Series [7] has as its system fructose metabolism in mice. The series is described as follows: Acute fructose feeding experiment in mice. It is filed as in vivo. The settings on record: compound 10 mpk, oral fructose 1 g/kg.

The IC50 is the midpoint of a concentration-inhibition curve. Usually clearance stands for the rate of elimination divided by the concentration. As a reminder, the bioavailability is the share of a dose that reaches the circulation, judged against a reference dose that is usually intravenous.

Sequence of CYP2D6 (P10635 whole entry): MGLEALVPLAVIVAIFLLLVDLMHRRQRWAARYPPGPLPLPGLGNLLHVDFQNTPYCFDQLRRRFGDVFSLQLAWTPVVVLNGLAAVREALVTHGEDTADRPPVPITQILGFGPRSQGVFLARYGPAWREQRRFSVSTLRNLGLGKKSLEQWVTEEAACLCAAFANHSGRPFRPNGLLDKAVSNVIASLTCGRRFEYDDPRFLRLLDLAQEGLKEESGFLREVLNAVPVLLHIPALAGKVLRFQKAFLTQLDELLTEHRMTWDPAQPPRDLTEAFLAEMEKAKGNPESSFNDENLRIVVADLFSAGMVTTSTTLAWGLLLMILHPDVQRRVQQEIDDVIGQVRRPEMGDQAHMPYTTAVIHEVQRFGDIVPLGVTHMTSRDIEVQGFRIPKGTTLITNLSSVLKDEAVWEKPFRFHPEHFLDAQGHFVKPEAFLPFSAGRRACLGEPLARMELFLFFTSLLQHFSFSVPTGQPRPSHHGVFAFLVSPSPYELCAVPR
Sequence of CYP2C9 (P11712 whole entry): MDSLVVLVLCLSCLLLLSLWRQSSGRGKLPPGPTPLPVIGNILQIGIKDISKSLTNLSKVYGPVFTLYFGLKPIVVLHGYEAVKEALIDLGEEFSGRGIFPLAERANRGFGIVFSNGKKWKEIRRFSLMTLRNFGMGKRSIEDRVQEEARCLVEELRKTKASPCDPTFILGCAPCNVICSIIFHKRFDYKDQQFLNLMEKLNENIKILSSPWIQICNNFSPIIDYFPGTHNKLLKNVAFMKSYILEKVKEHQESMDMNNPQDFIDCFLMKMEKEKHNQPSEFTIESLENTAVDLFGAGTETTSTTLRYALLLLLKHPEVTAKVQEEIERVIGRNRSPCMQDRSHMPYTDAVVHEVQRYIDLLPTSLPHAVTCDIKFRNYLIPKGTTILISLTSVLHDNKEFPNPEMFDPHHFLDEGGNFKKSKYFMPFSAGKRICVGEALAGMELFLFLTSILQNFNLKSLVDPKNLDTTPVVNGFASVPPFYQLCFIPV
Sequence of Recombinant Human Ketohexokinase (KHK) (P50053 whole entry): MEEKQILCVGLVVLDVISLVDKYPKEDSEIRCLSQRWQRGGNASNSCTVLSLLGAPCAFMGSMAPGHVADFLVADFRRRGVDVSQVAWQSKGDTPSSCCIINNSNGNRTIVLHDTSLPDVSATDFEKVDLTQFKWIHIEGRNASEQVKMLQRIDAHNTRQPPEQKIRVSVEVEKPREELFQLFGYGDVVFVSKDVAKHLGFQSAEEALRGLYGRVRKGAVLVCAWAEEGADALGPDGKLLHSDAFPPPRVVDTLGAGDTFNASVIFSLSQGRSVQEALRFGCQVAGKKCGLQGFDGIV

For `C[C@H]1CCN1c1nc(N2C[C@@H]3[C@@H](CC(=O)O)[C@@H]3C2)c2ccsc2n1` [WX004], the IC50 in series [1] is 0.049 µM; in series [2], above 50 µM; in series [3] it was above 50 µM; in series [4], above 50 µM; in series [5] it was above 50 µM. In addition, the clearance in series [6] (1 mg/kg, IV 1 mpk, read-out: Clearance rate) is 1.21 mL/min/kg. The bioavailability in series [6] (3 mg/kg, IV 1 mpk, PO 3 mpk, read-out: Bioavailability F) is 80%. Also, the AUC in series [6] (3 mg/kg, PO 3 mpk, read-out: Integral concentration AUC for PO) is 64.5 µM·h. Besides, the half-life in series [6] (IV 1 mpk and PO 3 mpk study, read-out: Half-life T1/2 (converted)) was 2.96 h. Besides, the “AUC of integral fructose concentration for dosed group” value in series [7] was found to be 2194 nM·h. In addition, the “AUC of integral fructose concentration of dosed group/AUC of Integral fructose concentration of control group” value in series [7] was found to be 5.0.
